Assay results: patent publication US10538487B2, “Sulfonylureas and related compounds and use of same” (priority 2015, dated 2020)
Read-outs that look alike come from different tables or passages of the source.

Columns and labels:
NLRP3 inflammasome [1] = target: NLRP3 inflammasome (Mus musculus, UniProt Q8R4B8); experiment: Inhibition of IL-1β release, NLRP3 inflammasome activation assay in BMDM; format: cell-based
Description: (§1) The following assays can be used to determine inhibitory activity of test compounds on the NLRP3 inflammasome using common stimuli such as adenosine triphosphate, nigericin, LeuLeu-OMe or monosodium urate crystals (MSU).
Mouse bone marrow-derived macrophages (BMDM) were derived from bone marrow progenitors isolated from the femurs and tibias of C57BL/6 mice.
BMDM are seeded at 1×10^5/ml. The following day the overnight medium is replaced and cells are stimulated with Ultrapure lipopolysaccharide from Escherichia coli K12 strain (InvivoGen) for 3 h. Medium is removed and replaced with serum free medium (SFM) containing test compound 30 min prior to NLRP3 stimulation. […] ATP can be sourced from Sigma Aldrich, nigericin and MSU from Invivogen and LeuLeu-Ome from Chem-Impex International.
(§2) For ELISA and cell death assays cells are seeded in 96 well plates. Supernatants are removed and analysed using ELISA kits according to the manufacturer's instructions (DuoSet® R&D Systems, ReadySetGo!® eBioscience, BD OptEIA™, or Perkin Elmer AlphaLISA®). Cell death is assessed by measurement of LDH release relative to a 100% cell lysis control using the CytoTox96® non-radioactive cytotoxicity assay (Promega).

NLRP3 inflammasome [2] = target: NLRP3 inflammasome (Homo sapiens, UniProt Q96P20); experiment: Inhibition of IL-1β release, NLRP3 inflammasome activation assay in HMDM; format: cell-based; conditions: inhibition of IL-1β release, class symbols, read-out: Avg. IL-1β IC50 HMDM
Chain of NLRP3 inflammasome (Homo sapiens, UniProt Q96P20) (Q96P20 whole entry): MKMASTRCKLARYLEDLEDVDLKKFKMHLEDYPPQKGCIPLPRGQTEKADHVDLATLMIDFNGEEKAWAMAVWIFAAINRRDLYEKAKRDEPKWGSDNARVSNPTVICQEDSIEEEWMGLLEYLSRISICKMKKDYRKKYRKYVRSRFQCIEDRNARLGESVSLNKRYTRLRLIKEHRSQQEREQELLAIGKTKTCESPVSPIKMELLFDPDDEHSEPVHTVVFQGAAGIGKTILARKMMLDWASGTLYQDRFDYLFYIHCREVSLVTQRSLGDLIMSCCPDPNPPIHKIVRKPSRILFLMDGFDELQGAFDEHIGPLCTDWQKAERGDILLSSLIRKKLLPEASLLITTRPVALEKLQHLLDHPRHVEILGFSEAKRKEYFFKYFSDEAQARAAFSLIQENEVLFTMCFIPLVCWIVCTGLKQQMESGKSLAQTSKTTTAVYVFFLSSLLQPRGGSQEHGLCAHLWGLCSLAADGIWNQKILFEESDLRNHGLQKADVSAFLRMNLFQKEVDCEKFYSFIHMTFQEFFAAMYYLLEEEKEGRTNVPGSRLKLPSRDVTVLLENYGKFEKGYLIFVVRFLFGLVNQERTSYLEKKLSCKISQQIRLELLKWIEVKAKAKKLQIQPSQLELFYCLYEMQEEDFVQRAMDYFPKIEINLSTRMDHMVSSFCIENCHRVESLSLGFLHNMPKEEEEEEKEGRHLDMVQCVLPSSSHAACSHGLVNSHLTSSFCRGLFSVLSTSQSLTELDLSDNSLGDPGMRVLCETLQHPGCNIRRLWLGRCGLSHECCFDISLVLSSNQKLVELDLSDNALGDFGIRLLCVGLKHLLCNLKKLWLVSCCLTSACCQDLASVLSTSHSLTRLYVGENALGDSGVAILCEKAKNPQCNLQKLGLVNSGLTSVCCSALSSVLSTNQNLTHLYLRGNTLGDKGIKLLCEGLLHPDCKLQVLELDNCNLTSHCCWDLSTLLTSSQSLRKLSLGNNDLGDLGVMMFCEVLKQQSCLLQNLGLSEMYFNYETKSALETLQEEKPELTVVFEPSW
Description: as §1
To generate HMDM, human monocytes are isolated from buffy coat blood using Ficoll-Plaque Plus (GE Healthcare) and density centrifugation. CD14^+ cell selection is performed using MACS magnetic beads (Miltenyl Biotec).
HMDM are seeded at 1×10^5/ml. […] Medium is removed and replaced with serum free medium (SFM) containing test compound 30 min prior to NLRP3 stimulation. […] ATP can be sourced from Sigma Aldrich, nigericin and MSU from Invivogen and LeuLeu-Ome from Chem-Impex International.
as §2

[3] = inhibition of IL-1β release, numeric bounds, read-out: Avg. IL-1β IC50 Murine BMDM
[4] = inhibition of IL-1β release, class symbols, read-out: Avg. IL-1β IC50 Murine BMDM
[5] = select compounds of the first aspect (Table 10), read-out: BMDM IC50 vs NLRP3

Chain of NLRP3 inflammasome (Mus musculus, UniProt Q8R4B8) (Q8R4B8 whole entry): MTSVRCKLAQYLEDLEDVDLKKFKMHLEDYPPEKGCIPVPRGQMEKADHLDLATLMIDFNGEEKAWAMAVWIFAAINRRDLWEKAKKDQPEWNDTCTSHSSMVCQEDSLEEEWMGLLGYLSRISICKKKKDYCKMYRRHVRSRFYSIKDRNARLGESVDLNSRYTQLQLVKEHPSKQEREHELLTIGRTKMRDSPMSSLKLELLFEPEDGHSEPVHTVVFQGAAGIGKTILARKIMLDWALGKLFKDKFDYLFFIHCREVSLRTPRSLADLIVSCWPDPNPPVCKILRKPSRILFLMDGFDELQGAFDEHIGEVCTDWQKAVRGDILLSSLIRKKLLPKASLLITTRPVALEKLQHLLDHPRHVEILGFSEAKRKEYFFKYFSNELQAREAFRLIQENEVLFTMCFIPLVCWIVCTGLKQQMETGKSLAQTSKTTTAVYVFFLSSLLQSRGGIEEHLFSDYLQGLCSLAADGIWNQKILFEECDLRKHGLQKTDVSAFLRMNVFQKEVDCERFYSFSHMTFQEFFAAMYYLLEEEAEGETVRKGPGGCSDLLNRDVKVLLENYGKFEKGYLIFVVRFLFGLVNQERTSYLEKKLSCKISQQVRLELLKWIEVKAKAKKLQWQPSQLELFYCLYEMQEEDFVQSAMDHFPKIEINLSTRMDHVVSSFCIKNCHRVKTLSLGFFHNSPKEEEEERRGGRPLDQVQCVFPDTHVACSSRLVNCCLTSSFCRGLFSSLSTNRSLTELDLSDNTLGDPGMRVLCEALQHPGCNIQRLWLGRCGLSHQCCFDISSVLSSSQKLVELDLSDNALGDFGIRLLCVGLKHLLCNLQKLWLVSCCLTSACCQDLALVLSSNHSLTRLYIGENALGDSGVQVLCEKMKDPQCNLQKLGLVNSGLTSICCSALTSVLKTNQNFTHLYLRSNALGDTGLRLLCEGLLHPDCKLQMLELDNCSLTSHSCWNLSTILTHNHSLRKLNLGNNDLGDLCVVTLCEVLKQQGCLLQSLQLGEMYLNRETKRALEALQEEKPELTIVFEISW

SMILES	IC50 (NLRP3 inflammasome [1]; [4]) [µM]	other results
COc1cc(Cl)cc(C(F)(F)F)c1NC(=O)NS(=O)(=O)c1ccn(C(C)C)n1 [N-((4-chloro-2-methoxy-6-(trifluoromethyl)phenyl)carbamoyl)-1-isopropyl-1H-pyrazole-3-sulfonamide]		IC50 (NLRP3 inflammasome [1]; [3]): > 10 µM
Cc1cc(Cl)cc(C(F)(F)F)c1NC(=O)NS(=O)(=O)c1cc(C(C)(C)O)co1 [N-((4-chloro-2-methyl-6-(trifluoromethyl)phenyl)carbamoyl)-4-(2-hydroxypropan-2-yl)furan-2-sulfonamide]		IC50 (NLRP3 inflammasome [1]; [3]): > 10 µM
CC(C)(O)c1coc(S(=O)(=O)NC(=O)Nc2c(C3CC3)cc(Cl)c3c2CCC3)c1 [N-((7-chloro-5-cyclopropyl-2,3-dihydro-1H-inden-4-yl)carbamoyl)-4-(2-hydroxypropan-2-yl)furan-2-sulfonamide]	< 0.1	
CC(C)c1cc(Cl)cc(C(C)C)c1NC(=O)NS(=O)(=O)c1cnc2ccsc2c1 [N-((4-chloro-2,6-diisopropylphenyl)carbamoyl)thieno[3,2-b]pyridine-6-sulfonamide]	< 1	
O=C(Nc1c2c(cc3c1CCC3)CCC2)NS(=O)(=O)c1cc(C(=O)O)co1 [5-(N-((1,2,3,5,6,7-hexahydro-s-indacen-4-yl)carbamoyl)sulfamoyl)furan-3-carboxylic acid]	< 10	
COc1ccc(OC)c(NC(=O)NS(=O)(=O)c2cc(C(C)(C)O)co2)c1 [N-((2,5-dimethoxyphenyl)carbamoyl)-4-(2-hydroxypropan-2-yl)furan-2-sulfonamide]	< 10	
CC(C)(O)c1coc(S(=O)(=O)NC(=O)Nc2c3c(cc4c2CCO4)CCC3)c1 [4-(2-hydroxypropan-2-yl)-N-((3,5,6,7-tetrahydro-2H-indeno[5,6-b]furan-4-yl)carbamoyl)furan-2-sulfonamide]	< 0.1	
CC(C)(O)c1coc(S(=O)(=O)NC(=O)Nc2c3c(c(Br)c4c2OCC4)CCC3)c1 [N-((4-bromo-3,5,6,7-tetrahydro-2H-indeno[5,6-b]furan-8-yl)carbamoyl)-4-(2-hydroxypropan-2-yl)furan-2-sulfonamide]	< 0.1	
CC(C)(O)c1coc(S(=O)(=O)NC(=O)Nc2c3c(cc4c2OCC4)CCC3)c1 [4-(2-hydroxypropan-2-yl)-N-((3,5,6,7-tetrahydro-2H-indeno[5,6-b]furan-8-yl)carbamoyl)furan-2-sulfonamide]	< 0.1	
O=C(Nc1c2c(cc3c1CCC3)CCC2)NS(=O)(=O)c1cn2c(n1)CCC2 [N-((1,2,3,5,6,7-hexahydro-s-indacen-4-yl)carbamoyl)-6,7-dihydro-5H-pyrrolo[1,2-a]imidazole-2-sulfonamide]	< 1	
COc1ccc2cc(S(=O)(=O)NC(=O)Nc3c(C(C)C)cc(Cl)cc3C(C)C)ccc2c1 [N-((4-chloro-2,6-diisopropylphenyl)carbamoyl)-6-methoxynaphthalene-2-sulfonamide]	< 0.1	
O=C(Nc1c2c(cc3c1CCC3)CCC2)NS(=O)(=O)c1nnc[nH]1 [N-((1,2,3,5,6,7-hexahydro-s-indacen-4-yl)carbamoyl)-4H-1,2,4-triazole-3-sulfonamide]	< 0.1	
CC(C)n1ccc(S(=O)(=O)NC(=O)Nc2nc(C(C)(C)C)cc(C(C)(C)C)n2)n1 [N-((4,6-di-tert-butylpyrimidin-2-yl)carbamoyl)-1-isopropyl-1H-pyrazole-3-sulfonamide]		IC50 (NLRP3 inflammasome [1]; [3]): > 10 µM
CCc1noc2ncc(S(=O)(=O)NC(=O)Nc3c(C(C)C)cc(Cl)cc3C(C)C)cc12 [N-((4-chloro-2,6-diisopropylphenyl)carbamoyl)-3-ethylisoxazolo[5,4-b]pyridine-5-sulfonamide]	< 10	
CC(C)c1cc(Cl)cc(C(C)C)c1NC(=O)NS(=O)(=O)c1ccc2cc(Cl)ccc2c1 [6-chloro-N-((4-chloro-2,6-diisopropylphenyl)carbamoyl)naphthalene-2-sulfonamide]	< 0.1	
Cc1cc(C)nc(NC(=O)NS(=O)(=O)c2ccn(C(C)C)n2)n1 [N-((4,6-dimethylpyrimidin-2-yl)carbamoyl)-1-isopropyl-1H-pyrazole-3-sulfonamide]		IC50 (NLRP3 inflammasome [1]; [3]): > 10 µM
CC(C)c1cc(Cl)cc(C(C)C)c1NC(=O)NS(=O)(=O)c1ccc2c(c1)CCCC2 [N-((4-chloro-2,6-diisopropylphenyl)carbamoyl)-5,6,7,8-tetrahydronaphthalene-2-sulfonamide]	< 0.1	
CC(C)(O)c1coc(S(=O)(=O)NC(=O)Nc2c3c(cc4c2OCC4)OCC3)c1 [4-(2-hydroxypropan-2-yl)-N-((2,3,6,7-tetrahydrobenzo[1,2-b:4,5-b′]difuran-4-yl)carbamoyl)furan-2-sulfonamide]	< 1	
Cc1cnc(C(=O)NCCc2ccc(S(=O)(=O)NC(=O)Nc3c4c(cc5c3CCC5)CCC4)cc2)cn1 [drawing 359]		IC50 (NLRP3 inflammasome [1]; [5]): 0.32 µM

SMILES	IC50 (NLRP3 inflammasome [1]; [4]) [µM]	other results
CC(C)(O)c1coc(S(=O)(=O)NC(=O)Nc2cccc3c2OCC3)c1 [N-((2,3-dihydrobenzofuran-7-yl)carbamoyl)-4-(2-hydroxypropan-2-yl)furan-2-sulfonamide]	< 50	
CC(C)(O)c1coc(S(=O)(=O)NC(=O)Nc2cccc3c2OCCO3)c1 [N-((2,3-dihydrobenzo[b][1,4]dioxin-5-yl)carbamoyl)-4-(2-hydroxypropan-2-yl)furan-2-sulfonamide]	< 10	
CC(C)(O)c1coc(S(=O)(=O)NC(=O)Nc2c3ccoc3cc3ccoc23)c1 [N-(benzo[1,2-b:4,5-b′]difuran-4-ylcarbamoyl)-4-(2-hydroxypropan-2-yl)furan-2-sulfonamide]	< 0.1	
COc1ccccc1NC(=O)NS(=O)(=O)c1cc(C(C)(C)O)co1 [4-(2-hydroxypropan-2-yl)-N-((2-methoxyphenyl)carbamoyl)furan-2-sulfonamide]	< 10	
Cc1cc(C(=O)NCCc2ccc(S(N)(=O)=O)cc2)no1 [Glisoxepide Precursor, reference compound]		IC50 (NLRP3 inflammasome [1]; commercial compounds (Table 9), read-out: BMDM IC50 vs NLRP3): > 10000 µM
Cc1oc(S(=O)(=O)NC(=O)Nc2c3c(cc4c2CCC4)CCC3)cc1C(C)(C)O [N-((1,2,3,5,6,7-hexahydro-s-indacen-4-yl)carbamoyl)-4-(2-hydroxypropan-2-yl)-5-methylfuran-2-sulfonamide]	< 0.1	
CC(C)(O)c1coc(S(=O)(=O)NC(=O)Nc2c3ccccc3cc3ccccc23)c1 [N-(anthracen-9-ylcarbamoyl)-4-(2-hydroxypropan-2-yl)furan-2-sulfonamide]	< 10	
CC(C)(O)c1coc(S(=O)(=O)NC(=O)Nc2c(C3CC3)cc(Cl)cc2C2CC2)c1 [N-((4-chloro-2,6-dicyclopropylphenyl)carbamoyl)-4-(2-hydroxypropan-2-yl)furan-2-sulfonamide]	< 0.1	
CN(C)Cc1ccc(S(=O)(=O)NC(=O)Nc2c3c(cc4c2CCC4)CCC3)o1 [5-((dimethylamino)methyl)-N-((1,2,3,5,6,7-hexahydro-s-indacen-4-yl)carbamoyl)furan-2-sulfonamide]		IC50 (NLRP3 inflammasome [2]): < 0.1 µM
O=C(Nc1c2c(cc3c1CCC3)CCC2)NS(=O)(=O)c1ccc([N+](=O)[O-])cc1 [N-((1,2,3,5,6,7-hexahydro-s-indacen-4-yl)carbamoyl)-4-nitrobenzenesulfonamide]	< 0.1	
O=C(Nc1c2c(cc3c1CCC3)CCC2)NS(=O)(=O)c1ccc([N+](=O)[O-])cc1 [drawing 368]		IC50 (NLRP3 inflammasome [1]; [5]): 0.043 µM
CC(C)c1cc(Cl)cc(C(C)C)c1NC(=O)NS(=O)(=O)c1ccn(C(C)C)n1 [sodium ((4-chloro-2,6-diisopropylphenyl)carbamoyl)((1-isopropyl-1H-pyrazol-3-yl)sulfonyl)amide]		IC50 (NLRP3 inflammasome [2]): < 1 µM
CCOC(=O)c1coc(S(=O)(=O)NC(=O)Nc2c3c(cc4c2CCC4)CCC3)c1 [ethyl 5-(N-((1,2,3,5,6,7-hexahydro-s-indacen-4-yl)carbamoyl)sulfamoyl)furan-3-carboxylate]	< 1	
CC(C)n1ccc(S(=O)(=O)NC(=O)Nc2c(C(=O)N(C)C)cc(Cl)cc2C2CC2)n1 [5-chloro-3-cyclopropyl-2-(3-((1-isopropyl-1H-pyrazol-3-yl)sulfonyl)ureido)-N,N-dimethylbenzamide]		IC50 (NLRP3 inflammasome [1]; [3]): > 10 µM
CC(C)c1cc(Cl)cc(C(C)C)c1NC(=O)NS(=O)(=O)c1cc(C(C)(C)O)n(C)n1 [sodium ((4-chloro-2,6-diisopropylphenyl)carbamoyl)((5-(2-hydroxypropan-2-yl)-1-methyl-1H-pyrazol-3-yl)sulfonyl)amide]		IC50 (NLRP3 inflammasome [2]): < 0.1 µM
Cc1cc(Cl)cc(C)c1NC(=O)NS(=O)(=O)c1cc(C(C)(C)O)co1 [N-((4-chloro-2,6-dimethylphenyl)carbamoyl)-4-(2-hydroxypropan-2-yl)furan-2-sulfonamide]	< 10	
[N-]=[N+]=Nc1cccc(S(=O)(=O)NC(=O)Nc2c3c(cc4c2CCC4)CCC3)c1 [3-Azido-N-((1,2,3,5,6,7-hexahydro-s-indacen-4-yl)carbamoyl)benzenesulfonamide]		IC50 (NLRP3 inflammasome [2]): < 1 µM
CC(C)c1cc(Cl)cc(C(C)C)c1NC(=O)NS(=O)(=O)c1cccc2nccnc12 [N-((4-chloro-2,6-diisopropylphenyl)carbamoyl)quinoxaline-5-sulfonamide]	< 0.1	
